How the values were obtained:
[1] = target: T1, KRas-mediated phosphorylation of ERK in H358 cells (Homo sapiens, UniProt P01116, G12C); test: Inhibition of KRas-mediated phosphorylation of ERK (HTRF), H358 cells; type: cell-based; settings: HTRF pERK, 3 h incubation
T1 construct: pERK HTRF read-out

[2] = target: T2, KRas-mediated phosphorylation of ERK in A549 cells (Homo sapiens, UniProt P01116, G12S); test: Inhibition of KRas-mediated phosphorylation of ERK (HTRF), A549 cells; type: cell-based; settings: HTRF pERK, 3 h incubation
T2 construct: pERK HTRF read-out
T2 sequence (P01116 1-188 isoform P01116-2 G12S): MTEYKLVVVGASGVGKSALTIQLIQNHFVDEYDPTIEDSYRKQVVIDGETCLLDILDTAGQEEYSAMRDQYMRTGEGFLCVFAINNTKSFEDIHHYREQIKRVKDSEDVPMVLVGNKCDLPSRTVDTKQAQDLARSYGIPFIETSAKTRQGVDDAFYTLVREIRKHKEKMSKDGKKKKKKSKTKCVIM

KRas G12S = target: T3, KRas G12S (Homo sapiens, UniProt P01116, G12S); test: KRas binding assay, TR-FRET displacement of Cy5 labelled tracer; settings: 60-minute incubation at room temperature, 1% DMSO, pH 7.5
T3 construct: Biotinylated KRas (corresponding to amino acids 1-169, produced at Accelegan Inc.); biotin (biotinylated); purchased Accelegan Inc
T3 sequence (P01116 1-169 isoform P01116-2 G12S): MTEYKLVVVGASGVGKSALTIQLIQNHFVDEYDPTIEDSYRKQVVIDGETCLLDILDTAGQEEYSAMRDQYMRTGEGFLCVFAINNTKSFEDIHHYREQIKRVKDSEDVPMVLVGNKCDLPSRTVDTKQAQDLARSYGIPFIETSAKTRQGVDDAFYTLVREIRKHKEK
Method in brief: (§1)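 Biotinylated KRas (residues 1-169) was incubated with tracer, terbium-streptavidin and compound at 1% DMSO final in 50 mM HEPES pH 7.5 containing 5 mM MgCl2, 0.005% Tween-20 and 1 mM DTT. The plate was read after 60 min at room temperature, and percent-of-control data were fit to a 4-parameter IC50 equation.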

KRas WT = target: T4, KRas WT (Homo sapiens, UniProt P01116); test: as above; settings: 60-minute incubation at room temperature, 1% DMSO, pH 7.5
T4 construct: Biotinylated KRas (corresponding to amino acids 1-169, produced at Accelegan Inc.); biotin (biotinylated); purchased Accelegan Inc
T4 sequence (P01116 1-169 isoform P01116-2): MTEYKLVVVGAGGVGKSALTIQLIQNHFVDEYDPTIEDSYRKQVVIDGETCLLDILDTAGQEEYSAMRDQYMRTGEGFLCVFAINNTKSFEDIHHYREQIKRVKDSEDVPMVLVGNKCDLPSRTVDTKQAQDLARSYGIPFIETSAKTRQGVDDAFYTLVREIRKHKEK
Method in brief: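 Compound competes with tracer for biotin-labelled KRas (amino acids 1-169) bound to terbium-streptavidin. Incubation runs 60 minutes at room temperature, final DMSO 1%. IC50 values derive from a 4-parameter fit.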

KRas G12C = target: T5, KRas G12C (Homo sapiens, UniProt P01116, G12C); test: as above; settings: 60-minute incubation at room temperature, 1% DMSO, pH 7.5
T5 construct: Biotinylated KRas (corresponding to amino acids 1-169, produced at Accelegan Inc.); biotin (biotinylated); purchased Accelegan Inc
T5 sequence (P01116 1-169 isoform P01116-2 G12C): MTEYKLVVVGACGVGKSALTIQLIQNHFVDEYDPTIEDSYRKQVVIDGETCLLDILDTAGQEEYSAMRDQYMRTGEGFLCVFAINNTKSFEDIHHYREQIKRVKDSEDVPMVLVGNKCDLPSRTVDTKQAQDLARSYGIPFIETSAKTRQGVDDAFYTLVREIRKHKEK
Method in brief: as §1

[3] = target: T6, KRas-mediated phosphorylation of ERK in MKN1 cells (Homo sapiens, UniProt P01116); test: Inhibition of KRas-mediated phosphorylation of ERK (HTRF), MKN1 cells; type: cell-based; settings: MKN1 cells (KRas WT); HTRF pERK; 3 h incubation
T6 construct: pERK HTRF read-out
T6 sequence (P01116 1-188 isoform P01116-2): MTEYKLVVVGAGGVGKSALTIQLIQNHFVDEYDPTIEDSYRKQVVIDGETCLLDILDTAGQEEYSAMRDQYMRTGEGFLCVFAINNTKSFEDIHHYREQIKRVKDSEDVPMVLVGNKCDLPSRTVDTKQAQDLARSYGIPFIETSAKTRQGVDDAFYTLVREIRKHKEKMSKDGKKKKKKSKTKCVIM
Protocol: Inhibition of KRas Phosphorylation of ERK (HTRF) by Exemplary Compounds of Formula (Ia) or (Ib)
Cisbio HTRF Advanced pERK Assay Catalog #64AERPEH • Cells: MKN1, PSN1 • Procedure: • 1. Day 1: Seed 6,000 cells/well −25 μl/well in 384-well white solid bottom plate; RPM1_10% FBS. Incubate overnight at 37 °C/5% CO2. • 2.

T1 sequence (P01116 1-188 isoform P01116-2 G12C): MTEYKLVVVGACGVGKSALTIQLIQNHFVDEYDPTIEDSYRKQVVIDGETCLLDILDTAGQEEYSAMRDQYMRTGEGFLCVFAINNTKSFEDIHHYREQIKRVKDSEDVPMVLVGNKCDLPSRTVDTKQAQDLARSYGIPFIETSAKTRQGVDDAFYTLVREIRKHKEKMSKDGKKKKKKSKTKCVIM

Row | IC50 [1] | IC50 [2] | IC50 (KRas G12S) | IC50 (KRas WT) | IC50 (KRas G12C) | IC50 [3] | SMILES
1 | 160 nM | 4250 nM | 35 nM | 23 nM | 27 nM | 105 nM | CCc1c(F)ccc2cc(O)cc(N3CCc4c(nc(OC[C@@]56CCCN5C[C@H](F)C6)nc4N4CCCCCC(C(=O)n5ccc(C)n5)C4)C3)c12 (stereo partly drawn) [Example 192, (1-(7-(8-ethyl-7-fluoro-3-hydroxynaphthalen-1-yl)-2-(((2R,7aS)-2-fluorotetrahydro-1H-pyrrolizin-7a(5H)-yl)methoxy)-5,6,7,8-tetrahydropyrido[3,4-d]pyrimidin-4-yl)azocan-3-yl)(3-methyl-1H-pyrazol-1-yl)methanone]
2 | 4900 nM | 276 nM | 188 nM | 332 nM | 334 nM | 1690 nM | CCc1c(F)ccc2cc(O)cc(-c3ncc4c(N5CC6CC(C(=O)N(C)C(C)=O)CC6C5)nc(OC[C@@]56CCCN5C[C@H](F)C6)nc4c3F)c12 (stereo partly drawn) [Example 279, N-acetyl-2-(7-(8-ethyl-7-fluoro-3-hydroxynaphthalen-1-yl)-8-fluoro-2-(((2R,7aS)-2-fluorotetrahydro-1H-pyrrolizin-7a(5H)-yl)methoxy)pyrido[4,3-d]pyrimidin-4-yl)-N-methyloctahydrocyclopenta[c]pyrrole-5-carboxamide]
3 | 5 nM | 2 nM | 3 nM | 22 nM | 4 nM | 71 nM | N#Cc1c(N)sc2c(F)ccc(-c3c(Cl)cc4c(N5CCC[C@H](C(=O)n6ccc(C7CC7)n6)CC5)nc(OC[C@@]56CCCN5C[C@H](F)C6)nc4c3F)c12 [Example 216, 2-amino-4-(6-chloro-4-((S)-4-(3-cyclopropyl-1H-pyrazole-1-carbonyl)azepan-1-yl)-8-fluoro-2-(((2R,7aS)-2-fluorotetrahydro-1H-pyrrolizin-7a(5H)-yl)methoxy)quinazolin-7-yl)-7-fluorobenzo[b]thiophene-3-carbonitrile]
4 | 1480 nM | 101 nM | 68 nM | 148 nM | 129 nM | 1030 nM | CCc1c(F)ccc2cc(O)cc(-c3ncc4c(N5CC(CC(=O)N(C)C(C)=O)C5)nc(OC[C@@]56CCCN5C[C@H](F)C6)nc4c3F)c12 [Example 276, N-acetyl-2-(1-(7-(8-ethyl-7-fluoro-3-hydroxynaphthalen-1-yl)-8-fluoro-2-(((2R,7aS)-2-fluorotetrahydro-1H-pyrrolizin-7a(5H)-yl)methoxy)pyrido[4,3-d]pyrimidin-4-yl)azetidin-3-yl)-N-methylacetamide]
5 | 3250 nM | 40 nM | 20 nM | 145 nM | 96 nM | 1460 nM | CCc1c(F)ccc2cc(O)cc(-c3ncc4c(N5CCCC(C(=O)n6ccc(C)n6)CC5)nc(OC[C@@]56CCCN5C[C@H](F)C6)nc4c3F)c12 (stereo partly drawn) [Example 63, (1-(7-(8-ethyl-7-fluoro-3-hydroxynaphthalen-1-yl)-8-fluoro-2-(((2R,7aS)-2-fluorotetrahydro-1H-pyrrolizin-7a(5H)-yl)methoxy)pyrido[4,3-d]pyrimidin-4-yl)azepan-4-yl)(3-methyl-1H-pyrazol-1-yl)methanone]
6 | 185 nM | 46 nM | 13 nM | 93 nM | 19 nM | 522 nM | Cc1ccn(C(=O)C2CCCN(c3nc(OCC4(CN(C)C)CC4)nc4c(F)c(-c5ccc(F)c6sc(N)c(C#N)c56)c(Cl)cc34)CC2)n1 (stereo not drawn) [Example 227, 2-amino-4-(6-chloro-2-((1-((dimethylamino)methyl)cyclopropyl)methoxy)-8-fluoro-4-(4-(3-methyl-1H-pyrazole-1-carbonyl)azepan-1-yl)quinazolin-7-yl)-7-fluorobenzo[b]thiophene-3-carbonitrile]
7 | 6510 nM | 549 nM | 539 nM | 357 nM | 864 nM | 2360 nM | CCc1c(F)ccc2cc(O)cc(-c3ncc4c(N5CC6CC(C(=O)N(C)C(C)=O)C6C5)nc(OC[C@@]56CCCN5C[C@H](F)C6)nc4c3F)c12 (stereo partly drawn) [Example 277, N-acetyl-3-(7-(8-ethyl-7-fluoro-3-hydroxynaphthalen-1-yl)-8-fluoro-2-(((2R,7aS)-2-fluorotetrahydro-1H-pyrrolizin-7a(5H)-yl)methoxy)pyrido[4,3-d]pyrimidin-4-yl)-N-methyl-3-azabicyclo[3.2.0]heptane-6-carboxamide]
8 | 15 nM | 175 nM | 16 nM | 83 nM | 3 nM | 322 nM | CN(CCCC(=O)Oc1ccccc1F)c1nc(OC[C@@]23CCCN2C[C@H](F)C3)nc2c(F)c(-c3ccc(F)c4sc(N)c(C#N)c34)c(Cl)cc12 [Example 218, 2-fluorophenyl 4-((7-(2-amino-3-cyano-7-fluorobenzo[b]thiophen-4-yl)-6-chloro-8-fluoro-2-(((2R,7aS)-2-fluorotetrahydro-1H-pyrrolizin-7a(5H)-yl)methoxy)quinazolin-4-yl)(methyl)amino)butanoate]
9 | 91 nM | 12 nM | < 2 nM | 58 nM | < 2 nM | 1320 nM | CCc1c(F)ccc2cc(O)cc(-c3ncc4c(N(C)CCCC(=O)n5ccc(C)n5)nc(OC[C@@]56CCCN5C[C@H](F)C6)nc4c3F)c12 [Example 110, 4-((7-(8-ethyl-7-fluoro-3-hydroxynaphthalen-1-yl)-8-fluoro-2-(((2R,7aS)-2-fluorotetrahydro-1H-pyrrolizin-7a(5H)-yl)methoxy)pyrido[4,3-d]pyrimidin-4-yl)(methyl)amino)-1-(3-methyl-1H-pyrazol-1-yl) butan-1-one]
10 | 5 nM | 14 nM | 12 nM | 44 nM | 11 nM | 56 nM | N#Cc1c(N)sc2c(F)ccc(-c3c(C(F)(F)F)cc4c(N5CCC(C(=O)Oc6ccccc6)CC5)nc(OC[C@@]56CCCN5C[C@H](F)C6)nc4c3F)c12 [Example 295, phenyl 1-(7-(2-amino-3-cyano-7-fluorobenzo[b]thiophen-4-yl)-8-fluoro-2-(((2R,7aS)-2-fluorotetrahydro-1H-pyrrolizin-7a(5H)-yl)methoxy)-6-(trifluoromethyl)quinazolin-4-yl)piperidine-4-carboxylate]
11 | 60 nM | 7 nM | 2 nM | 6 nM | 3 nM | 82 nM | CN(C=O)C(=O)CCCN(C)c1nc(OC[C@@]23CCCN2C[C@H](F)C3)nc2c(F)c(-c3ccc(F)c4sc(N)c(C#N)c34)c(Cl)cc12 [Example 235, 4-((7-(2-amino-3-cyano-7-fluorobenzo[b]thiophen-4-yl)-6-chloro-8-fluoro-2-(((2R,7aS)-2-fluorotetrahydro-1H-pyrrolizin-7a(5H)-yl)methoxy)quinazolin-4-yl)(methyl)amino)-N-formyl-N-methylbutanamide]
12 | 2 nM | 249 nM | 7 nM | 11 nM | < 2 nM | 223 nM | CN(CCNC(=O)n1ccnn1)c1nc(OC[C@@]23CCCN2C[C@H](F)C3)nc2c(F)c(-c3ccc(F)c4sc(N)c(C#N)c34)c(Cl)cc12 [Example 249, N-(2-((7-(2-amino-3-cyano-7-fluorobenzo[b]thiophen-4-yl)-6-chloro-8-fluoro-2-(((2R,7aS)-2-fluorotetrahydro-1H-pyrrolizin-7a(5H)-yl)methoxy)quinazolin-4-yl)(methyl)amino)ethyl)-1H-1,2,3-triazole-1-carboxamide]

Source: patent US20260356856A1, “KRAS G12S AND G12C INHIBITORS” (MIRATI THERAPEUTICS, INC., priority 2023, published 2026)
